Laboratory results: patent publication US20210238225A1, “PEPTIDOMIMETIC INHIBITORS OF THE PEPTIDYL-PROLYL CIS/TRANS ISOMERASE (PIN1)” (DANA-FARBER CANCER INSTITUTE, INC., priority 2018, published 2021)
Like-named read-outs stand apart in the source and are kept apart here. Non-standard residues stand in square brackets, D forms with d. Residues, ends and D or L forms follow the SMILES beside them. *: point of attachment. Ala(9-anthryl) = N[C@@H](Cc1c2ccccc2cc2ccccc12)C(=O)O; Phe(4-F) = N[C@@H](Cc1ccc(F)cc1)C(=O)O; 2Nal = N[C@@H](Cc1ccc2ccccc2c1)C(=O)O; X2 = C[C@H]1NC(=O)N[C@H]1CCCCCC(=O)*; Bta = N[C@@H](Cc1csc2ccccc12)C(=O)O; NMeY = CN[C@@H](Cc1ccc(O)cc1)C(=O)O; NH(4-Me-benzyl) = Cc1ccc(CN*)cc1; NMeF = CN[C@@H](Cc1ccccc1)C(=O)O; β3hE = N[C@@H](CCC(=O)O)CC(=O)O; Cit = NC(=O)NCCC[C@H](N)C(=O)O; Pip = O=C(O)[C@@H]1CCCCN1; Piperidide = C1CCN(*)CC1; Fluoroacetyl = O=C(CF)*; X5 = Cc1ccc(CN(C)*)cc1; Acryloyl = C=CC(=O)*; X3 = C=CS(=O)(=O)*; X4 = CN(c1ccccc1)*; ClAc = O=C(CCl)*

Target: Pin1 (GST-Pin1) (Homo sapiens, UniProt Q13526)
Test: Fluorescence polarization (FP) assay, binding to Pin1
Settings: competition with fluorescein-labeled peptide probe, 12 hours pre-incubation at 4° C., Kenakin Ki equation

Sequence of Pin1 (GST-Pin1) (Q13526 whole entry): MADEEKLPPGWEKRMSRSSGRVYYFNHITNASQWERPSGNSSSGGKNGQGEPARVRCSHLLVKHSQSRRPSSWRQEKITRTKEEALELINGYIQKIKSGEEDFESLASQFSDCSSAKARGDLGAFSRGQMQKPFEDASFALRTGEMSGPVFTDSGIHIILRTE

| Structure (SMILES) | Ki (read-out: Ki, μM (FP Assay)) [µM] | Ki (Ki, μM (FP Assay)) [µM] |
| --- | --- | --- |
| NC(=O)C[C@H](NC(=O)[C@H](Cc1ccc2ccccc2c1)NC(=O)[C@@H]1CCCCN1C(=O)[C@H](CCC(=O)O)NC(=O)CCl)C(N)=O [Compound 2-8, (S)-4-(2-Chloroacetamido)-5-((S)-2-(((S)-1-(((S)-1,4-diamino-1,4-dioxobutan-2-yl)amino)-3-(naphthalen-2-yl)-1-oxopropan-2-yl)carbamoyl)piperidin-1-yl)-5-oxopentanoic acid] (ClAc-E[Pip][2Nal]N-NH2) | 0.13 | – |
| Cc1ccc(CN(C)C(=O)[C@H](CCCNC(N)=O)NC(=O)[C@H](Cc2c[nH]c3ccccc23)NC(=O)[C@@H]2CCCCN2C(=O)[C@H](CCC(=O)O)NC(=O)CCl)cc1 [Compound 11-9, (S)-5-((S)-2-(((S)-3-(1H-Indol-3-yl)-1-(((S)-1-(methyl(4-methylbenzyl)amino)-1-oxo-5-ureidopentan-2-yl)amino)-1-oxopropan-2-yl)carbamoyl)piperidin-1-yl)-4-(2-chloroacetamido)-5-oxopentanoic acid] (ClAc-E[Pip]W[Cit]-X5) | 0.31 | – |
| COC(=O)CC[C@H](NC(=O)CCl)C(=O)N1CCCC[C@H]1C(=O)N[C@@H](Cc1c[nH]c2ccccc12)C(=O)N(C)[C@@H](Cc1ccc(O)cc1)C(N)=O [Compound 2-28, Methyl (S)-5-((S)-2-(((S)-1-(((S)-1-amino-3-(4-hydroxyphenyl)-1-oxopropan-2-yl)(methyl)-amino)-3-(1H-indol-3-yl)-1-oxopropan-2-yl)carbamoyl)piperidin-1-yl)-4-(2-chloroacetamido)-5-oxopentanoate] (ClAc-E(OMe)[Pip]W[NMeY]-NH2) | > 10 | – |
| NC(=O)NCCC[C@H](NC(=O)[C@H](Cc1ccc2ccccc2c1)NC(=O)[C@@H]1CCCCN1C(=O)C[C@H](CCC(=O)O)NC(=O)CCl)C(N)=O [Compound 2-12, (S)-6-((S)-2-(((S)-1-(((S)-1-Amino-1-oxo-5-ureidopentan-2-yl)amino)-3-(naphthalen-2-yl)-1-oxopropan-2-yl)carbamoyl)piperidin-1-yl)-4-(2-chloroacetamido)-6-oxohexanoic acid] (ClAc-[β3hE][Pip][2Nal][Cit]-NH2) | 0.106 | – |
| NC(=O)CC[C@H](NC(=O)[C@H](Cc1csc2ccccc12)NC(=O)[C@@H]1CCCCN1C(=O)[C@H](CCC(=O)O)NC(=O)CCl)C(N)=O [Compound 2b-8, (S)-5-((S)-2-(((S)-3-(Benzo[6]thiophen-3-yl)-1-(((S)-1,5-diamino-1,5-dioxopentan-2-yl)amino)-1-oxopropan-2-yl)carbamoyl)piperidin-1-yl)-4-(2-chloroacetamido)-5-oxopentanoic acid] (ClAc-E[Pip][Bta]Q-NH2) | 2.83 | – |
| COC(=O)CC[C@H](NC(=O)CCl)C(=O)N1CCCC[C@H]1C(=O)N[C@@H](Cc1c[nH]c2ccccc12)C(=O)N[C@@H](Cc1ccc(F)cc1)C(=O)N(C)c1ccccc1 [Compound 11-20, Methyl (S)-4-(2-chloroacetamido)-5-((S)-2-(((S)-1-(((S)-3-(4-fluorophenyl)-1-(methyl-(phenyl)amino)-1-oxopropan-2-yl)amino)-3-(1H-indol-3-yl)-1-oxopropan-2-yl)carbamoyl)-piperidin-1-yl)-5-oxopentanoate] (ClAc-E(OMe)[Pip]W[Phe(4-F)]-X4) | – | 0.223 |
| C=CC(=O)N[C@H](CC(=O)O)C(=O)N1CCCC[C@H]1C(=O)N[C@@H](Cc1ccc2ccccc2c1)C(=O)N[C@@H](CCC(N)=O)C(N)=O [Compound 2-34, (R)-3-Acrylamido-4-((S)-2-(((S)-1-(((S)-1,5-diamino-1,5-dioxopentan-2-yl)amino)-3-(naphthalen-2-yl)-1-oxopropan-2-yl)carbamoyl)piperidin-1-yl)-4-oxobutanoic acid] (Acryloyl-[dD][Pip][2Nal]Q-NH2) | > 10 | – |
| CN(C(=O)CCl)[C@@H](Cc1ccccc1)C(=O)N1CCCC[C@H]1C(=O)N[C@@H](Cc1c[nH]c2ccccc12)C(=O)N1CCCCC1 [Compound 11-45, (S)—N—((S)-3-(1H-indol-3-yl)-1-oxo-1-(piperidin-1-yl)propan-2-yl)-1-(N-(2-chloroacetyl)-N-methyl-L-phenylalanyl)piperidine-2-carboxamide] (ClAc-[NMeF]-[Pip]-Trp-Piperidide) | > 1 | – |
| N=C(N)NCCC[C@H](NC(=O)[C@H](Cc1c2ccccc2cc2ccccc12)NC(=O)[C@@H]1CCCCN1C(=O)[C@H](CCC(=O)O)NC(=O)CCl)C(N)=O [Compound 2b-11, (S)-5-((S)-2-(((S)-1-(((S)-1-Amino-5-guanidino-1-oxopentan-2-yl)amino)-3-(anthracen-9-yl)-1-oxopropan-2-yl)carbamoyl)piperidin-1-yl)-4-(2-chloroacetamido)-5-oxopentanoic acid] (ClAc-E[Pip][Ala(9-anthryl)]R-NH2) | 0.609 | – |
| N=C(N)NCCC[C@H](NC(=O)[C@H](Cc1ccc2ccccc2c1)NC(=O)[C@@H]1CCCCN1C(=O)[C@H](CCC(=O)O)NC(=O)CF)C(N)=O [Compound 6b-1, (S)-5-((S)-2-(((S)-1-(((S)-1-Amino-5-guanidino-1-oxopentan-2-yl)amino)-3-(naphthalen-2-yl)-1-oxopropan-2-yl)carbamoyl)piperidin-1-yl)-4-(2-fluoroacetamido)-5-oxopentanoic acid] (Fluoroacetyl-E[Pip][2Nal]R-NH2) | – | > 10 |
| C=CS(=O)(=O)N[C@@H](Cc1ccccc1)C(=O)N1CCCC[C@H]1C(=O)N[C@@H](Cc1c[nH]c2ccccc12)C(=O)N[C@@H](CCCNC(N)=O)C(=O)NCc1ccc(C)cc1 [Compound 14, (S)—N—((S)-3-(1H-indol-3-yl)-1-(((S)-1-((4-methylbenzyl)amino)-1-oxo-5-ureidopentan-2-yl)amino)-1-oxopropan-2-yl)-1-((vinylsulfonyl)-L-phenylalanyl)piperidine-2-carboxamide] (X3-F[Pip]W[Cit]-{NH(4-Me-benzyl)}) | 0.143 | – |
| C[C@H](NC(=O)[C@H](C)NC(=O)[C@H](CCCNC(N)=O)NC(=O)[C@H](Cc1c[nH]c2ccccc12)NC(=O)[C@@H]1CCCCN1C(=O)[C@H](CCC(=O)O)NC(=O)CCl)C(=O)N[C@@H](CCCCNC(=O)CCCCC[C@@H]1NC(=O)N[C@@H]1C)C(N)=O [Compound 2c-1, (S)-5-((S)-2-(((2S,5S,8S,11S)-14-Carbamoyl-1-(1H-indol-3-yl)-8,11-dimethyl-25-((4S,5R)-5-methyl-2-oxoimidazolidin-4-yl)-3,6,9,12,20-pentaoxo-5-(3-ureidopropyl)-4,7,10,13,19-pentaazapentacosan-2-yl)carbamoyl)piperidin-1-yl)-4-(2-chloroacetamido)-5-oxopentanoic acid] (ClAc-E[Pip]W[Cit]AAK(X2)-NH2) | 0.04 | – |
| O=C(CCl)N[C@@H](Cc1ccccc1)C(=O)N1CCCC[C@H]1C(=O)N[C@@H](Cc1c[nH]c2ccccc12)C(=O)N[C@@H](Cc1ccccc1)C(=O)N1CCCCC1 [Compound 11-41, (S)—N—((S)-3-(1H-Indol-3-yl)-1-oxo-1-(((S)-1-oxo-3-phenyl-1-(piperidin-1-yl)propan-2-yl)amino)propan-2-yl)-1-((2-chloroacetyl)-L-phenylalanyl)piperidine-2-carboxamide] (ClAc-F[Pip]WF-Piperidide) | 0.151 | – |
